Key:
Format in all cases: physicochemical
[1] = Solution stability (pH 5.2) at high temperature, impurities by HPLC; conditions: solution 1 mg/mL; for Total impurities, 4th day: 4 days; for Total impurities, 7th day: 7 days; for Total impurities, 14th day: 14 days
Experimental: Solution Stability (pH 5.2)
Sibutramine free base, sibutramine hydrochloride monohydrate and sibutramine inclusion complex (Examples 1 and 2) were compared in terms of solution stability at high temperature.
Specifically, each compound was dissolved into the concentration of 1 mg/mL and pH 5.2, and the solution was moved to a 20 mL vial. Solution stability test was conducted at 60° C. and 70° C., respectively, by measuring the content of impurities with high performance liquid chromatography (HPLC) after the storage for 4, 7 and 14 days.

[2] = Photo-stability after UV-irradiation, impurities by HPLC; conditions: for Content of impurities, UV: after UV-irradiation for 120 hours (total radiation dosage: 200 watt); for Content of impurities, Initial: before UV-irradiation
Experimental: Sibutramine free base, sibutramine hydrochloride monohydrate and sibutramine inclusion complex (Examples 1 and 2) were compared in terms of photo-stability.
After UV-irradiation for 120 hours (total radiation dosage: 200 watt), the content of impurities was measured with high performance liquid chromatography (HPLC).

[3] = Temperature & humidity stability, impurities by HPLC; conditions: for Content of impurities, 60° C., 75%: stored at 60° C. 75% for 2 weeks; for Content of impurities, 60° C., 93%: stored at 60° C. 93% for 2 weeks; for Content of impurities, 70° C., 75%: stored at 70° C. 75% for 2 weeks
Experimental: Temperature & Humidity Stability
Sibutramine free base, sibutramine hydrochloride monohydrate and sibutramine inclusion complex (Examples 1 and 2) were compared in terms of temperature and humidity stability.
Specifically, each compound was stored under the condition selected from the group consisting of 60° C. 75%, 60° C. 93% and 70° C. 75% for 2 weeks. The content impurities was measured with high performance liquid chromatography (HPLC).

| SMILES | Total impurities, 4th day ([1]; pH 5.2, 60 C.) | Total impurities, 7th day ([1]; pH 5.2, 60 C.) | Total impurities, 14th day ([1]; pH 5.2, 60 C.) | Total impurities, Initial ([1]; pH 5.2, 60 C.) | Total impurities, 4th day ([1]; pH 5.2, 70 C.) | Total impurities, 7th day ([1]; pH 5.2, 70 C.) | Total impurities, 14th day ([1]; pH 5.2, 70 C.) | Total impurities, Initial ([1]; pH 5.2, 70 C.) | Content of impurities, UV [2] | Content of impurities, Initial [2] | Temperature and humidity stability, in words ([3]; comparison of Table 3) | Content of impurities, Initial [3] | Content of impurities, 60° C., 75% [3] | Content of impurities, 60° C., 93% [3] | Content of impurities, 70° C., 75% [3] |
| --- | --- | --- | --- | --- | --- | --- | --- | --- | --- | --- | --- | --- | --- | --- | --- |
| CC(C)CC(N(C)C)C1(c2ccc(Cl)cc2)CCC1 (centres unmarked) [Sibutramine free base, N,N-dimethyl-1-[1-(4-chlorophenyl)-cyclobutyl]-3-methylbutylamine] | 7.59% | 13.77% | 17.16% | 0.00% | 10.04% | 17.05% | 20.52% | 0.00% | 0.33 | 0.00 | most unstable | 0.00 | 5.65 | 6.09 | 8.27 |
| CC(C)CC(N(C)C)C1(c2ccc(Cl)cc2)CCC1.Cl (centres unmarked) [Sibutramine hydrochloride monohydrate] | 0.02% | 0.02% | 0.09% | 0.00% | 1.56% | 2.09% | 4.49% | 0.00% | 0.11 | 0.06 |  | 0.00 | 0.06 | 0.07 | 0.13 |
